Tests used:
Assay type in all cases: cell-based
[1] = tested on: HIV-1 reverse transcriptase K101E + G190S (K101E-G190S-RTV); assay: Phenotypic susceptibility assay, site directed mutant K101E-G190S-RTV
Method: (§1) Resistance tests were carried out with resistance test vectors using two host cell types. Resistance test vector viral particles were produced by a first host cell (the resistance test vector host cell) that was prepared by transfecting a packaging host cell with the resistance test vector and the packaging expression vector. The resistance test vector viral particles were then used to infect a second host cell (the target host cell) in which the expression of the indicator gene is measured.
(§2) The resistance test vectors containing a functional luciferase gene cassette were constructed and host cells were transfected with the resistance test vector DNA. The resistant test vectors contained patient-derived reverse transcriptase and protease sequences that were either susceptible or resistant to the antiretroviral agents, such as nucleoside reverse transcriptase inhibitors, non-nucleoside reverse transcriptase inhibitors and protease inhibitors. The resistance test vector viral particles produced by transfecting the resistance test vector DNA into host cells, either in the presence or absence of protease inhibitors, were used to infect target host cells grown either in the absence of NRTI or NNRTI or in the presence of increasing concentrations of the drug. The amount of luciferase activity produced in infected target host cells in the presence of drug was compared to the amount of luciferase produced in infected target host cells in the absence of drug. Drug resistance was measured as the amount of drug required to inhibit by 50% the luciferase activity detected in the absence of drug (inhibitory concentration 50%, IC50). The IC50 values were determined by plotting percent drug inhibition vs. log10 drug concentration.
Host cells were seeded in 10-cm-diameter dishes and were transfected several days after plating with resistance test vector plasmid DNA and the envelope expression vector. Transfections were performed using a calcium-phosphate precipitation procedure. The cell culture media containing the DNA precipitate was replaced with fresh medium, from one to 24 hours, after transfection. Cell culture media containing resistance test vector viral particles was harvested one to four days after transfection and was passed through a […] filter before being stored at −80° C. HIV capsid protein (p24) levels in the harvested cell culture media were determined by an EIA method as described by the manufacturer (SIAC; Frederick, Md.). Before infection, target cells (293 and 293/T) were plated in cell culture media. Control infections were performed using cell culture media from mock transfections (no DNA) or transfections containing the resistance test vector plasmid DNA without the envelope expression plasmid. One to three or more days after infection the media was removed and cell lysis buffer (Promega) was added to each well. […] The inhibitory effect of the drug was determined using the following equation: % luciferase inhibition=1-(RLUluc[drug]÷RLUluc)×100 where RLUluc [drug] is the relative light unit of luciferase activity in infected cells in the presence of drug and RLUluc is the Relative Light Unit of luciferase activity in infected cells in the absence of drug. IC50 values were obtained from the sigmoidal curves that were generated from the data by plotting the percent inhibition of luciferase activity vs. the log10 drug concentration.
Mutations may be incorporated alone and/or in combination with other known drug resistance mutations that are thought to modulate the susceptibility of HIV to a certain drug or class of drugs. Mutations are introduced into the resistance test vector through any of the widely known methods for site-directed mutagenesis. In one embodiment of this invention the mega-primer PCR method for site-directed mutagenesis is used.

[2] = tested on: HIV-1 reverse transcriptase V108I (V108I-RTV); assay: Phenotypic susceptibility assay, site directed mutant V108I-RTV; settings: >1 loss of susceptibility
Method: as §1
as §2, with “The amount of luciferase activity produced in infected target host cells in the presence of drug was compared to the amount of luciferase produced in infected target host cells in the absence of drug. Drug resistance was measured as the amount of drug required to inhibit by 50% the luciferase activity detected in the absence of drug (inhibitory concentration 50%, IC50).” left out
(§3) Host cells were seeded in 10-cm-diameter dishes and were transfected several days after plating with resistance test vector plasmid DNA and the envelope expression vector. […] HIV capsid protein (p24) levels in the harvested cell culture media were determined by an EIA method as described by the manufacturer (SIAC; Frederick, Md.). […] The inhibitory effect of the drug was determined using the following equation: % luciferase inhibition=1-(RLUluc[drug]÷RLUluc)×100 where RLUluc [drug] is the relative light unit of luciferase activity in infected cells in the presence of drug and RLUluc is the Relative Light Unit of luciferase activity in infected cells in the absence of drug. […]

[3] = tested on: HIV-1 reverse transcriptase V106A (V106A-RTV); assay: Phenotypic susceptibility assay, site directed mutant V106A-RTV; settings: >1 loss of susceptibility
Method: as §1
as §2, with “The amount of luciferase activity produced in infected target host cells in the presence of drug was compared to the amount of luciferase produced in infected target host cells in the absence of drug. Drug resistance was measured as the amount of drug required to inhibit by 50% the luciferase activity detected in the absence of drug (inhibitory concentration 50%, IC50).” left out
as §3

[4] = tested on: HIV-1 reverse transcriptase F227L (F227L-RTV); assay: Phenotypic susceptibility assay, site directed mutant F227L-RTV; settings: >1 loss, <1 increased susceptibility
Method: as §1
as §2, with “The amount of luciferase activity produced in infected target host cells in the presence of drug was compared to the amount of luciferase produced in infected target host cells in the absence of drug. Drug resistance was measured as the amount of drug required to inhibit by 50% the luciferase activity detected in the absence of drug (inhibitory concentration 50%, IC50).” left out
as §3

[5] = tested on: HIV-1 reverse transcriptase V106A + V189L (V106A-V189L-RTV); assay: Phenotypic susceptibility assay, site directed mutant V106A-V189L-RTV; settings: >1 loss of susceptibility
Method: as §1
as §2, with “The amount of luciferase activity produced in infected target host cells in the presence of drug was compared to the amount of luciferase produced in infected target host cells in the absence of drug. Drug resistance was measured as the amount of drug required to inhibit by 50% the luciferase activity detected in the absence of drug (inhibitory concentration 50%, IC50).” left out
as §3

[6] = tested on: HIV-1 reverse transcriptase V106A + F227L (V106A-F227-RTV); assay: Phenotypic susceptibility assay, site directed mutant V106A-F227-RTV; settings: >1 loss of susceptibility
Method: as §1
as §2, with “The amount of luciferase activity produced in infected target host cells in the presence of drug was compared to the amount of luciferase produced in infected target host cells in the absence of drug. Drug resistance was measured as the amount of drug required to inhibit by 50% the luciferase activity detected in the absence of drug (inhibitory concentration 50%, IC50).” left out
as §3

[7] = tested on: HIV-1 reverse transcriptase V106A + Y181C + F227L (V106A-Y181C-F227L-RTV); assay: Phenotypic susceptibility assay, site directed mutant V106A-Y181C-F227L-RTV; settings: >1 loss of susceptibility
Method: as §1
as §2, with “The amount of luciferase activity produced in infected target host cells in the presence of drug was compared to the amount of luciferase produced in infected target host cells in the absence of drug. Drug resistance was measured as the amount of drug required to inhibit by 50% the luciferase activity detected in the absence of drug (inhibitory concentration 50%, IC50).” left out
as §3

[8] = tested on: HIV-1 reverse transcriptase L100I (L100I-RTV); assay: Phenotypic susceptibility assay, site directed mutant L100I-RTV; settings: >1 loss of susceptibility
Method: as §1
as §2, with “The amount of luciferase activity produced in infected target host cells in the presence of drug was compared to the amount of luciferase produced in infected target host cells in the absence of drug. Drug resistance was measured as the amount of drug required to inhibit by 50% the luciferase activity detected in the absence of drug (inhibitory concentration 50%, IC50).” left out
as §3

Structure (SMILES): Cc1ccnc2c1NC(=O)c1cccnc1N2C1CC1 [nevirapine]
- fold change in susceptibility compared to wild type control RTV ([1]; >1 loss of susceptibility): greater than 800 fold
- fold change in susceptibility compared to wild type control RTV ([1]; >1 loss, <1 increased susceptibility): 75 fold
- fold change in susceptibility compared to wild type control RTV [2]: 3 fold
- fold change in susceptibility compared to wild type control RTV [3]: 60 fold
- fold change in susceptibility compared to wild type control RTV [4]: 3 fold
- fold change in susceptibility compared to wild type control RTV [5]: 50 fold
- fold change in susceptibility compared to wild type control RTV [6]: greater than 800 fold
- fold change in susceptibility compared to wild type control RTV [7]: greater than 800 fold
- fold change in susceptibility compared to wild type control RTV [8]: 3 fold
